Experiment: In vivo biodistribution and pharmacokinetics in CD-1 mice
Settings: i.v. 10 nmol
Description: Six weeks old CD-1 mice (male; 25-30 g) were purchased from Charles River Laboratories (Wilmington, Mass.). Mice were maintained under anesthesia by intraperitoneal injection with 100 mg/kg ketamine and 10 mg/kg xylazine (Webster Veterinary, Fort Devens, MA) for the entire duration of the experiment. The end of the tail was cut to enable blood extraction. Before injection, blood was then sampled in heparinized capillary tubes (Fisher Scientific, Pittsburgh, Pa.) as a reference and collected blood was stored in an ice box to prevent clotting. […] Mice were imaged using the in-house built real-time intraoperative MR imaging system. A 760 nm excitation laser source (4 mW/cm) was used with white light (400-650 nm; 40,000 lux). Color and MR fluorescence images were acquired simultaneously with customized software at rates of up to 15 Hz over a field of view with 15 cm in diameter. After 4 h post-injection, mice were sacrificed to image organs and collected urine from the bladder. At least 3 mice were analyzed for each sample.
The collected blood samples were centrifuged for 20 min at 3000 rpm in order to separate serum and blood plasma, and supernatants were then filled into capillary microtubes. Fluorescence intensities of the microtubes were measured using the in-house built MR imaging system. […]

In the case of `CC1(C)C(/C=C/C2=C(c3ccc(CCC(=O)O)cc3)C(=C/C=C3/N(CCC[N+](C)(C)C)c4ccc(S(=O)(=O)O)cc4C3(C)C)/CCC2)=[N+](CCC[N+](C)(C)C)c2ccc(S(=O)(=O)O)cc21` [ZW800-1C], the “Signal-to-background ratio (SBR) of each organ against muscle” value (4 h, resected organs) is reported as “highest SBR in the kidneys” and the “Biodistribution by NIR fluorescence imaging” value (4 h post-injection) is reported as “excretes to the bladder 4 h after injection”.
